# Read-outs that look alike come from different tables or passages of the source.
# Key:
# Proteus vulgaris = experiment: Minimum inhibitory concentration against bacteria, strain A; format: cell-based; details: 24 hours at 30° C.; tested at 100 and 300 mg/liter
# Description: (§1) Overnight cultures, grown in Caso peptone bouillon (Merck) of the various strains of bacteria: (A) Proteus vulgaris, (B) Pseudomonas aeruginosa, (C) Enterobacter aerogenes, (D) Serratia marcencens, (E) Alcaligenes denitrificans and (F) Bacillus subtilis are each diluted in a ratio of 1/1000 in saline solution. Sufficient of the suspensions is put into Caso peptone bouillon to dilute the bacteria again in the ratio of 1/1000. Each of the compounds listed in Table 1 is then added in amounts of 100 and 300 mg/liter. After being incubated for 24 hours at 30° C. in a shaking waterbath, the turbidity of the samples is evaluated.
# Pseudomonas aeruginosa = experiment: Minimum inhibitory concentration against bacteria, strain B; format: cell-based; details: 24 hours at 30° C.; tested at 100 and 300 mg/liter
# Description: as §1
# Enterobacter aerogenes = experiment: Minimum inhibitory concentration against bacteria, strain C; format: cell-based; details: 24 hours at 30° C.; tested at 100 and 300 mg/liter
# Description: as §1
# Serratia marcencens = experiment: Minimum inhibitory concentration against bacteria, strain D; format: cell-based; details: 24 hours at 30° C.; tested at 100 and 300 mg/liter
# Description: as §1
# [1] = tested on: Alcaligenes denitrificans; experiment: Minimum inhibitory concentration against bacteria, strain E; format: cell-based; details: 24 hours at 30° C.; tested at 100 and 300 mg/liter
# Description: as §1
# Bacillus subtilis = experiment: Minimum inhibitory concentration against bacteria, strain F; format: cell-based; details: 24 hours at 30° C.; tested at 100 and 300 mg/liter
# Description: as §1
# [2] = tested on: mixed culture of bacteria; format: cell-based; design: key: +: growth, no destruction; (+): growth less than that of control (>10 colonies), slight destruction; (-): slight growth (1-10 colonies); -: no growth, destruction
# Aspergillus niger = experiment: Minimum inhibitory concentration against fungi, agar incorporation test, strain K; format: cell-based; details: malt extract/agar
# Description: (§2) The invention is carried out using the known agar incorporation test in the following fungi:
# (§3) in a malt extract/agar (Merck). Inhibition is effected by adding sufficient of each of the various compounds to give final concentrations in the agar of 2, 5, 10, 50 and 100 mg/liter. The concentrations (mg/liters) required to inhibit the growth of the fungi (starting from traces of fungi added dropwise) are illustrated in Table 3.
# Aspergillus phoenicis = experiment: Minimum inhibitory concentration against fungi, agar incorporation test, strain L; format: cell-based; details: malt extract/agar
# Description: as §2
# (L) Aspergillus phoenicis
# as §3
# Penicillium funiculosum = experiment: Minimum inhibitory concentration against fungi, agar incorporation test, strain M; format: cell-based; details: malt extract/agar
# Description: as §2
# (M) Penicillium funiculosum
# as §3
# Alternaria alternata = experiment: Minimum inhibitory concentration against fungi, agar incorporation test, strain N; format: cell-based; details: malt extract/agar
# Description: as §2, §3
# [3] = tested on: Cladosporium cladosporioides; experiment: Minimum inhibitory concentration against fungi, agar incorporation test, strain O; format: cell-based; details: malt extract/agar
# Description: as §2
# (O) Cladosporium cladosporioides
# as §3
# Candida albicans = experiment: Minimum inhibitory concentration against fungi, agar incorporation test, strain P; format: cell-based; details: malt extract/agar
# Description: as §2, §3
# Endomyces geotrichum = experiment: Minimum inhibitory concentration against fungi, agar incorporation test, strain Q; format: cell-based; details: malt extract/agar
# Description: as §2, §3
# Aureobasidium pullulans = experiment: Minimum inhibitory concentration against fungi, agar incorporation test, strain R; format: cell-based; details: malt extract/agar
# Description: as §2
# (R) Aureobasidium pullulans
# as §3
# Chaetomium globosum = experiment: Minimum inhibitory concentration against fungi, agar incorporation test, strain S; format: cell-based; details: malt extract/agar
# Description: as §2, §3
# Chlorella vulgaris = experiment: Action against algae: Chlorella vulgaris; format: cell-based; design: key: --: no growth on the agar, 3 ppm have destroyed the algae in 6 hours; details: 3 mg/liter; for Growth on the agar (algae-destroying action): 6 hours exposure, 14 days incubation; for Growth in the medium (growth inhibition): 14 days
# Description: Cultures of Chlorella vulgaris which had been grown for 14 days in algae nutrient media are diluted in the ratio 1/200 in the algae nutrient medium. Each of the compounds listed in Table 1 is then added in such an amount as to give a final concentration of 3 mg/liter. After incubating for 6 hours, 10 μl of each culture are withdrawn and added dropwise to algae/agar in order to determine the destructive action. After the cultures have incubated for 14 days under illumination (14 hours of light and 10 hours of darkness, alternately), the growth in the algae medium (determination of growth inhibition) and on the algae/agar (determination of algae-destroying action) is assessed visually.
# [4] = tested on: Enteromorpha intestinalis; experiment: Action against Enteromorpha intestinalis: destruction (minimum killing concentration); format: in vivo; details: 4 hours in seawater, then 6-8 weeks in fresh seawater
# Description: (§4) The action against the green alga Enteromorpha, which is the most important in seawter fouling, is investigated in sterile-filtered seawater containing an Erd-Schreiber solution. This solution is composed of a nutrient extract, phosphate and nitrate. The incubation of Enteromorpha intestinalis is carried out in a light thermostat at 18° C. under an alternation of 14 hours of light and 10 hours of darkness.
# The algae which have been cultured in this way are exposed to the products under investigation for a short time (4 hours) in seawater. The minimum killing concentration (MKC) is determined by taking the algae out of the seawater containing a specific quantity of algicide, after the treatment time in the latter, washing the algae and investigating growth or mortality after incubation in fresh seawater for a further period of 6-8 weeks.
# The minimum killing concentration (MKC) indicates the amount of substance required to cause such damage to the algae within a specific time that they can no longer recover in fresh seawater and die out.
# [5] = tested on: Enteromorpha intestinalis; experiment: Action against Enteromorpha intestinalis: inhibitory concentration (MIC); format: in vivo; details: seawater containing biocide for entire test; concentration tested 0.5 mg/liter
# Description: as §4
# For determining the inhibitory concentration (MIC), the algae are kept in seawater containing biocide for the entire duration of the test (concentration tested: 0.5 mg/liter).
# Artemia salina = experiment: Action against Artemia salina nauplii; format: in vivo; design: key: 0: no change; 1: slight change; 1-2: animals are attacked; 2: animals are strongly attacked; 2-3: animals are nearly all dead; 3: animals are all dead
# Description: The eggs, which are available commercially, are caused to hatch by vigorous aeration. When 2-3 days old, the nauplii are exposed to the products at various concentrations (concentrations tested: 2.5; 1; 0.5 and 0.25 mg/liter) in synthetic seawater, and are observed over a prolonged period of time.
# [6] = 5 mg/l, culture diluted 1/1000 in Tyrode
# [7] = 5 mg/l, culture diluted 1/10000 in Tyrode
# [8] = 10 mg/l, culture diluted 1/1000 in Tyrode
# [9] = 10 mg/l, culture diluted 1/10000 in Tyrode
# [10] = 30 mg/l, culture diluted 1/1000 in Tyrode
# [11] = 30 mg/l, culture diluted 1/10000 in Tyrode
# [12] = 60 mg/l, culture diluted 1/1000 in Tyrode
# [13] = 60 mg/l, culture diluted 1/10000 in Tyrode
# [14] = 100 mg/l, culture diluted 1/1000 in Tyrode
# [15] = 100 mg/l, culture diluted 1/10000 in Tyrode
structure (smiles),measurement,setting,value
"CCCCCCCCCC[N+](C)(C)CCCCCCCCCC.CCC[CH2][Sn-]([Cl])([Cl])([CH2]CCC)[CH2]CCC [Example 4, dimethyl-didecylammonium tributyldichlorostannate-(IV)]","MIC against bacteria, strain A",Proteus vulgaris,100 µg/mL
same,"MIC against bacteria, strain B",Pseudomonas aeruginosa,100 µg/mL
same,"MIC against bacteria, strain C",Enterobacter aerogenes,100 µg/mL
same,"MIC against bacteria, strain D",Serratia marcencens,100 µg/mL
same,"MIC against bacteria, strain E",[1],100 µg/mL
same,"MIC against bacteria, strain F",Bacillus subtilis,100 µg/mL
same,Growth (destruction of a mixed culture of bacteria),[2]; [6],+
same,Growth (destruction of a mixed culture of bacteria),[2]; [7],+
same,Growth (destruction of a mixed culture of bacteria),[2]; [8],+
same,Growth (destruction of a mixed culture of bacteria),[2]; [9],"(+) (growth less than that of control (>10 colonies), slight destruction)"
same,Growth (destruction of a mixed culture of bacteria),[2]; [10],+
same,Growth (destruction of a mixed culture of bacteria),[2]; [11],-
same,Growth (destruction of a mixed culture of bacteria),[2]; [12],"(+) (growth less than that of control (>10 colonies), slight destruction)"
same,Growth (destruction of a mixed culture of bacteria),[2]; [13],-
same,Growth (destruction of a mixed culture of bacteria),[2]; [14],"(+) (growth less than that of control (>10 colonies), slight destruction)"
same,Growth (destruction of a mixed culture of bacteria),[2]; [15],-
same,"MIC against fungi, strain K",Aspergillus niger,2 µg/mL
same,"MIC against fungi, strain L",Aspergillus phoenicis,5 µg/mL
same,"MIC against fungi, strain M",Penicillium funiculosum,5 µg/mL
same,"MIC against fungi, strain N",Alternaria alternata,2 µg/mL
same,"MIC against fungi, strain O",[3],5 µg/mL
same,"MIC against fungi, strain P",Candida albicans,5 µg/mL
same,"MIC against fungi, strain Q",Endomyces geotrichum,5 µg/mL
same,"MIC against fungi, strain R",Aureobasidium pullulans,2 µg/mL
same,"MIC against fungi, strain S",Chaetomium globosum,2 µg/mL
same,Growth on the agar (algae-destroying action),Chlorella vulgaris,--
same,Growth in the medium (growth inhibition),Chlorella vulgaris,--
same,"Destruction, 5 mg/liter",[4],yes
same,MIC,[5],0.5 µg/mL
same,Action against Artemia salina,"Artemia salina; 0,5 mg/l, 6 hours",1-3
same,Action against Artemia salina,"Artemia salina; 0,5 mg/l, 24 hours",2-3
same,Action against Artemia salina,"Artemia salina; 0,5 mg/l, 48 hours",3
same,Action against Artemia salina,"Artemia salina; 0,25 mg/l, 6 hours",0-1
same,Action against Artemia salina,"Artemia salina; 0,25 mg/l, 24 hours",2
same,Action against Artemia salina,"Artemia salina; 0,25 mg/l, 48 hours",2
same,Action against Artemia salina,"Artemia salina; 1 mg/l, 6 hours",2-3
same,Action against Artemia salina,"Artemia salina; 1 mg/l, 24 hours",3
same,Action against Artemia salina,"Artemia salina; 1 mg/l, 48 hours",3
same,Action against Artemia salina,"Artemia salina; 2,5 mg/l, 6 hours",2-3
same,Action against Artemia salina,"Artemia salina; 2,5 mg/l, 24 hours",3
same,Action against Artemia salina,"Artemia salina; 2,5 mg/l, 48 hours",3
"CCCCCCCCCCCCCC[N+](CCO)(CCO)Cc1ccccc1.CCC[CH2][Sn-]([Cl])([Cl])([CH2]CCC)[CH2]CCC [Example 24, Di-hydroxyethyl-benzyl-tetradecyl / Tributyldichloro]","MIC against bacteria, strain A",Proteus vulgaris,100 µg/mL
same,"MIC against bacteria, strain B",Pseudomonas aeruginosa,100 µg/mL
same,"MIC against bacteria, strain C",Enterobacter aerogenes,100 µg/mL
same,"MIC against bacteria, strain D",Serratia marcencens,100 µg/mL
same,"MIC against bacteria, strain E",[1],100 µg/mL
same,"MIC against bacteria, strain F",Bacillus subtilis,100 µg/mL
same,Growth (destruction of a mixed culture of bacteria),[2]; [6],+
same,Growth (destruction of a mixed culture of bacteria),[2]; [7],+
same,Growth (destruction of a mixed culture of bacteria),[2]; [8],+
same,Growth (destruction of a mixed culture of bacteria),[2]; [9],+
same,Growth (destruction of a mixed culture of bacteria),[2]; [10],+
same,Growth (destruction of a mixed culture of bacteria),[2]; [11],+
same,Growth (destruction of a mixed culture of bacteria),[2]; [12],+
same,Growth (destruction of a mixed culture of bacteria),[2]; [13],"(+) (growth less than that of control (>10 colonies), slight destruction)"
same,Growth (destruction of a mixed culture of bacteria),[2]; [14],+
same,Growth (destruction of a mixed culture of bacteria),[2]; [15],-
same,"MIC against fungi, strain K",Aspergillus niger,5 µg/mL
same,"MIC against fungi, strain L",Aspergillus phoenicis,5 µg/mL
same,"MIC against fungi, strain M",Penicillium funiculosum,5 µg/mL
same,"MIC against fungi, strain N",Alternaria alternata,5 µg/mL
same,"MIC against fungi, strain O",[3],2 µg/mL
same,"MIC against fungi, strain P",Candida albicans,5 µg/mL
same,"MIC against fungi, strain Q",Endomyces geotrichum,5 µg/mL
same,"MIC against fungi, strain R",Aureobasidium pullulans,2 µg/mL
same,"MIC against fungi, strain S",Chaetomium globosum,2 µg/mL
same,Growth on the agar (algae-destroying action),Chlorella vulgaris,--
same,Growth in the medium (growth inhibition),Chlorella vulgaris,--
same,Action against Artemia salina,"Artemia salina; 0,5 mg/l, 6 hours",1-2
same,Action against Artemia salina,"Artemia salina; 0,5 mg/l, 24 hours",2-3
same,Action against Artemia salina,"Artemia salina; 0,5 mg/l, 48 hours",3
same,Action against Artemia salina,"Artemia salina; 0,25 mg/l, 6 hours",0-1
same,Action against Artemia salina,"Artemia salina; 0,25 mg/l, 24 hours",2
same,Action against Artemia salina,"Artemia salina; 0,25 mg/l, 48 hours",2-3
same,Action against Artemia salina,"Artemia salina; 1 mg/l, 6 hours",2
same,Action against Artemia salina,"Artemia salina; 1 mg/l, 24 hours",3
same,Action against Artemia salina,"Artemia salina; 1 mg/l, 48 hours",3
same,Action against Artemia salina,"Artemia salina; 2,5 mg/l, 6 hours",2-3
same,Action against Artemia salina,"Artemia salina; 2,5 mg/l, 24 hours",3
same,Action against Artemia salina,"Artemia salina; 2,5 mg/l, 48 hours",3

# Reference: US4578489A (priority 1982, dated 1986)
